Patent publication US20180168215A1, “NUTRITIONAL COMPOSITIONS CONTAINING INOSITOL AND USES THEREOF” (Mead Johnson Nutrition Company, priority 2016, published 2018)

Legend:
[1] = system: Hippocampal cultures from embryonic rats; experiment: Inositol plus DHA, presynaptic Bassoon puncta by quantitative immunostaining; assay type: cell-based, rat; conditions: compared to a DMSO control; FIG. 7
Description: Example 5 illustrates synergistic effect of inositol and DHA. FIG. 7 illustrates the effect of inositol in combination with DHA for presynaptic development. Hippocampal cultures from embryonic rats were analyzed by quantitative immunostaining. […] (See FIG. 7).

E18 hippocampal neurons = experiment: Axon growth in microfluidic devices, immunohistochemistry with β-tubulin III; assay type: cell-based; conditions: addition of 600 μM inositol vs inositol free media
Description: Example 3 illustrates that inositol exposure increases neuronal axon growth. Generally, an axon is a long, slender projection of a neuron that conducts electrical impulses away from the neuron's cell body. Myelinated axons are generally known as nerve fibers. Axons make contact with other neurons at synapses. Therefore, the healthy status of a neural axon is fundamentally important for proper brain function. The integrity and growth of axons can be measured by immunohistochemistry with β-tubulin III. Indeed, illustrated herein, the absence of inositol causes axon growth to stop and truncate prematurely; while supplementation of inositol provides healthy growth of neuronal axons. […] The axons of hippocampal neurons lost continuity and disintegrated. […] Taken together, inositol is essential for axon development and higher concentrations of inositol benefits the extension of axons.

hippocampal neurons = experiment: PDL-coated bead presynaptic formation, immunostaining for synapsin1, bassoon and β-tubulin III; assay type: cell-based, rat
Description: Example 1 illustrates that inositol has a does dependent effect on neurotransmission. Due to the continuum of synapse development in vivo, it is difficult to quantitatively assess synapse development. However, in order to provide at time stamp for synapse development, Example 1 is directed to a PDL-coated bead in a culture medium designed to induce synaptic formation. […] By adding the PDL-coated beads to the axonal compartment of the microfluidic compartment, it allows for the visualization of presynaptic terminal development without the overwhelming signal from somata or dendrites. Indeed, this experimental set-up allows for the subjection of distinct compartments to nutrients of interest. The method used herein is described in the reference, Taylor, A. M. et al. “A microfluidic culture platform for CNS axonal injury regeneration and transport.” Nat Methods, 2005. 2(8): p. 599-605, which is incorporated by reference. Briefly, the microfluidic chip contains four chambers, two at the left side and two at the right connected by microgrooves in the center. […] The images were taken and quantified by using confocal microscopy. […] The measurements were quantified and subjected to statistical analysis by two-way ANOVA.

rat hippocampal neurons = experiment: FM dye release on electrical field stimulation of neurons in microfluidic devices; assay type: cell-based; conditions: for releasing FM Dye as an indicator of neural transmitter release: 9DIV
Description: Example 1 illustrates that inositol has a does dependent effect on neurotransmission. Due to the continuum of synapse development in vivo, it is difficult to quantitatively assess synapse development. However, in order to provide at time stamp for synapse development, Example 1 is directed to a PDL-coated bead in a culture medium designed to induce synaptic formation. […] By adding the PDL-coated beads to the axonal compartment of the microfluidic compartment, it allows for the visualization of presynaptic terminal development without the overwhelming signal from somata or dendrites. Indeed, this experimental set-up allows for the subjection of distinct compartments to nutrients of interest. The method used herein is described in the reference, Taylor, A. M. et al. “A microfluidic culture platform for CNS axonal injury regeneration and transport.” Nat Methods, 2005. 2(8): p. 599-605, which is incorporated by reference. Briefly, the microfluidic chip contains four chambers, two at the left side and two at the right connected by microgrooves in the center. The cortical and hippocampal dissociated neurons from embryonic rat (E18) and mouse (E17) were seeded in the left (somal) side of the chambers with a density of approximately 3×10^6 cells/ml, yielding approximately 3,000 cells in the somal side of the chamber. The PDL-coated nanobeads were added to the right side of the chamber. In each testing condition, the culture medium contains different nutrient. The immunohistochemistry analysis was performed in order to assess the impact on synaptic development provided by the nutrients. The cultures were fixed using 4% paraformaldehyde for 30 min at room temperature. The cultures then were washed twice with phosphate-buffered saline (PBS) for 5 min, and then permeabilized using PBS with 0.2% Triton X-100 for 30 min. To block nonspecific binding, PBS with 0.2% Triton X-100 and 10% goat serum was used. The primary antibodies were exposed to PBS with 0.2% Triton X-100 and 5% goat serum at 4° C. overnight, followed by brief rinsing of the cultures 3 times for 10 min. They were then incubated them with secondary antibody (conjugated with Alexa Fluor 488 or 568) in PBS for 1 h. The images were taken and quantified by using confocal microscopy. At embryonic Day 18, rat hippocampal neurons were plated on to microfluidic devices and inositol was added to both somal and axonal compartments from second day in vitro. Cultures were exposed with different concentrations of inositol at 200 μM, 600 μM, 1200 μM, or the control 40 μM, every 3 days by completely changing the media every three days. At 9 days in vitro (9DIV) the cultures were loaded with FM dye and electrical field stimulation of somal compartments was performed on each for about one minute.

[2] = system: hippocampal cultures from embryonic E18 rats; experiment: Synaptogenesis in embryonic neuronal culture, quantitative immunostaining for Bassoon, Homer and MAP2; assay type: cell-based, rat
Description: Example 4 illustrates that supplementation with inositol produces strong synaptogenic effects. Nerve cells communicate with each other in the brain through specialized junctions, called synapses. These junctions start to form in the human brain before birth and continue to develop at a rapid rate in the early postnatal period. Changes in this synaptogenic process impair the wiring of the brain and can cause developmental disorders. While effects related to caloric intake and selected nutrients on general brain function have been characterized, limited information exists on the specific roles of nutrients and natural nutrients in synapse formation. Accordingly, Example 4 illustrates the effects of inositol on hippocampal neurons and analyzed them by quantitative immunostaining for synaptic markers. Dissociated neuronal cultures were prepared from rat hippocampus and used in this culture system. It was observed that neurons undergo most rapid synaptogenesis at or by day 14 in vitro (14DIV). By day 21 in vitro (21 DIV), most neurons have become mature and synapse formation occurs at a slower rate. Accordingly, testing at day 14 or 21 in vitro therefore allows for distinguishing nutrient effects at different developmental stages. The neurons were grown in either in standard neurobasal NB medium which contains 40 uM inositol according to the manufacturer; or in 200 μM inositol using custom made medium from LifeTechnology that lacks inositol and that was supplemented with inositol to 200 μM; or without inositol using just the custom made medium from the same manufacturer that lacks inositol. The neurons and synapses were determined by staining Bassoon as a presynaptic active zone marker in green fluorescence, Homer as a postsynaptic marker in red, and MAP2 as a dendrite marker in blue. […] Quantitively, increasing inositol to higher concentrations further promoted its synaptogenic effects (see FIG. 4D) at pre-synaptic sites. The pre-synapses were measured by quantifying the number of bassoon in the puncta per 10 micron dendrite. […] The results were determined by quantitative immunostaining for the presynaptic marker (Bassoon) and the excitatory postsynaptic (Homer). (See. FIG. 4E). Indeed, as shown in FIGS. 4A-4C, hippocampal cultures from embryonic E18 rats grown at the indicated inositol concentrations were analyzed by quantitative immunostaining. FIG. 4A illustrates neurons grown under control conditions and stained for the presynaptic marker Bassoon (in green), the postsynaptic scaffold protein Homer (in red), and the dendritic marker MAP2 (in blue). FIG. 4B illustrates neurons grown with supplemented inositol at 200 μM from 4-14 days in vitro. FIG. 4C illustrates neurons grown without inositol. […] Additionally, FIG. 5 illustrates that treatment with inositol promotes the alignment of pre- and post-synaptic sites. […] Hippocampal cultures from embryonic rats were analyzed by quantitative immunostaining. […] In brief, the presynaptic markers were stained with […] and are shown in green and the post-synaptic markers were stained with homer in and are shown in red. The co-localization of pre- and post-synapse was determined the appearance of a yellow signal, which is produced when green color mixes with red. The quantification was analyzed by using Imag J software and co-localization was calculated by counting the numbers of yellow puncta per […] dendrite. Briefly, hippocampal cultures from embryonic rats were analyzed by quantitative immunostaining. […] The pre-synapse size was determined by the puncta size of bassoon; while the post-synapse size by that of homer. The histochemistry images were analyzed by using Image J software.

O[C@H]1[C@H](O)[C@@H](O)[C@H](O)[C@@H](O)[C@H]1O [inositol]
presynaptic Bassoon puncta [1]: increased the presynaptic Basson puncta | axon growth (E18 hippocampal neurons): restore and promote the healthy growth of axons | synapsin 1 and bassoon clustering at the bead-axon terminals (hippocampal neurons; 10DIV hippocampal neurons, FIGS. 2A and 2B): increases synapsin 1 and bassoon clustering | presynaptic assembly (hippocampal neurons; inositol at 600 μM vs 40 μM control, FIG. 2A): significantly increases the presynaptic assembly | releasing FM Dye as an indicator of neural transmitter release (rat hippocampal neurons; 200 μM inositol vs control wells containing 40 μM inositol): significant increases in releasing FM Dye | releasing FM Dye as an indicator of neural transmitter release (rat hippocampal neurons; 600 μM inositol vs control wells containing 40 μM inositol): significant increases in releasing FM Dye | neural transmitter releasing, consistency of results (rat hippocampal neurons; 600 μM inositol wells): consistent and robust results with enhanced neural transmitter releasing | concentration at which the highest effects on FM dye releasing were observed (rat hippocampal neurons; tested 200, 600, 1200 μM, dose dependent, statistically significant): 600 µM | pre-synaptic puncta density (number of bassoon puncta per 10 micron dendrite) ([2]; compared to control as well as DHA at 20 μM, FIG. 4D): increase the pre-synaptic puncta density in a statistically significant manner | post-synaptic sites as measured by post-synaptic marker (Homer) density ([2]; higher concentrations of inositol, compared to the control and DHA at 20 μM, FIG. 4E): enhance post-synaptic sites | overall health of neuron ([2]; increasing inositol): promotes the overall health of neuron | density of pre- and post-synaptic specializations ([2]; increasing inositol from standard 40 μM to 200 μM): substantially elevates the density of pre- and post-synaptic specializations | effect on synapse number relative to DHA ([2]; lowest tested concentrations of inositol): effects comparable to DHA | size of presynaptic sites (Bassoon puncta size) ([2]; supplementation from 4-14 days in vitro, FIG. 6A): increase the size of presynaptic sites | size of postsynaptic sites (Homer puncta size) ([2]; supplementation from 4-14 days in vitro, FIG. 6B): increase the size | co-localization of pre-synaptic (Bassoon) with post synaptic (Homer) sites ([2]; treatment from 4-14 days in vitro, FIG. 5): increased the extent to which pre-synaptic sites (as measured by Bassoon staining) co-localized with post synaptic sites | synapse number ([2]; treatment from 7-14 days in vitro): increased synapse number
